Test [1] addresses T1, PD-1/PD-L1 binding (Homo sapiens, UniProt Q9NZQ7).
T1 construct: purchased Sino Biological Inc. 10084-H02H-100 (PD-L1-Fc); 10377-H08H-50 (His-PD-1)
Kind of test: HTRF inhibition of PD-1/PD-L1 binding in vitro. The settings on record: His-PD-1 100 nM, PD-L1-Fc 2 nM, read-out: IC50 inhibiting PD-1/PD-L1 binding in vitro. The text has this: Homogeneous Time-Resolved Fluorescence (HTRF): This method used the recombinant human PD-L1 protein fused to express the hFc tag and the recombinant human PD-1 protein fused to express the His tag, both of which were interacting ligands and receptors. When the anti-hFc antibody containing Eu element chelation marker and the anti-His antibody labeled with XL665 fluorescein were bound with the above two corresponding labels, and excited by a laser with a wavelength of 320 nm, the ligand-receptor binding enabled the energy to be transferred from the Eu element to the XL665 fluorescein, which was excited to emit light at a wavelength of 665 nm. However, when an inhibitor of the interaction between PD-L1 and PD-1 was added, the binding of the ligand to the receptor was destroyed, so that the distance between Eu and XL665 was far away, the energy cannot be transferred, and XL665 would not be excited.
Recombinant human PD-1 protein with His tag (His-PD-1 protein, Cat #: 10377-H08H-50), and recombinant human PD-L1-Fc fusion protein (PD-L1-Fc fusion protein, Cat #: 10084-H02H-100) were purchased from Sino Biological Inc., […] and anti-His-XL665 antibody were purchased from Cisbio Company, and other related reagents such as dilution buffer (Diluent buffer 5, Cat #: 62DL5DDC), detection buffer (PPI-Europium detection buffer, Cat #: 61DB9RDF) were purchased from Cisbio Company. Fluorescence detection instrument Tecan (Spark 10 M) was purchased from Switzerland Tecan Company.
(1) Experimental preparation: The test compound was diluted with dilution buffer into different concentration gradients (the highest final concentration in 20 μL final reaction system was 10 μM), His-PD-1 protein was diluted to 800 nM (the final concentration in 20 μL final reaction system was 100 nM), and the PD-L1-Fc fusion protein was diluted to 16 nM (final concentration was 2 nM). The anti-His-XL665 antibody and anti-hFc-Eu^3+ antibody were respectively diluted 20 times and 100 times using the detection buffer according to the reagent requirements.
(2) 5 μL of test compound, 2.5 μL of PD-L1-Fc fusion protein and 2.5 μL of His-PD-1 protein solution were mixed, and incubated at room temperature for 15 min. Then the system was added with 5 μL of anti-His-XL665 antibody and 5 μL of anti-hFc-Eu^3+ antibody, incubated for another 3 h, and then detected.
(3) When detecting the reaction, a control group was also provided, including a 0% inhibition positive control without adding test compounds and a 100% inhibition negative control without adding PD-1 protein. All detections were performed with duplicates.
(4) The fluorescence signal of each well was measured using a fluorescence detector Tecan (Spark 10M) at an excitation wavelength of 320 nm, and emission wavelengths of 620 nm and 665 nm, respectively. The intensity of the mutual binding of PD-1 and PD-L1 referred to the ratio of fluorescence signals Em665/Em620.
(5) The binding inhibition rate of the test compound was calculated as follows: Inhibition rate (%)=[1−(Fluorescence signal ratio of detection well-fluorescence signal ratio of 100% inhibition negative control)]/(fluorescence signal ratio of 0% inhibition positive control-fluorescence signal ratio of 100% inhibition negative control)×100%. After calculating the inhibition rate on PD-1/PD-L1 binding of the test compounds with different concentration gradients, the 50% inhibitory concentration (IC50) was calculated.

Test [2] deals with T2, CD80/PD-L1 binding (Homo sapiens, UniProt Q9NZQ7).
T2 construct: purchased Sino Biological Inc. 10084-H02H-100 (PD-L1-Fc); 10698-H08H-100 (His-CD80)
Put plainly: HTRF inhibition of CD80/PD-L1 binding in vitro. The settings on record: His-CD80 100 nM, PD-L1-Fc 2 nM, read-out: IC50 inhibiting CD80/PD-L1 binding in vitro. The source says:
In addition to PD-1, PD-L1 can also exert immunosuppressive activity by binding to CD80. Similarly, in vitro experiments of binding or binding inhibition of CD80 and PD-L1 can also be measured by homogeneous time-resolved fluorescence (HTRF). When the anti-hFc-Eu^3+ antibody and anti-His-XL665 antibody were bound to the hFC tag fused to PD-L1 and the His tag fused to CD80 respectively, and excited with a 320 nm wavelength laser, the binding of PD-L1 and CD80 enabled energy to be transferred from the Eu element to the XL665 fluorescein, which was excited to emit light. When the inhibitor of the interaction between PD-L1 and CD80 was added, the combination of the two was destroyed, so that the distance between Eu and XL665 was far away, the energy cannot be transferred, and XL665 would not be excited.
Recombinant human CD80 protein with His tag (His-CD80 protein, Cat #: 10698-H08H-100), and recombinant human PD-L1-Fc fusion protein (PD-L1-Fc fusion protein, Cat #: 10084-H02H-100) were purchased from Sino Biological Inc., anti-hFc-Eu^3+ antibody and anti-His-XL665 antibody were purchased from Cisbio Company, and other related reagents such as dilution buffer (Diluent buffer 5, Cat #: 62DL5DDC), detection buffer (PPI-Europium detection buffer, Cat #: 61DB9RDF) were purchased from Cisbio Company. Fluorescence detection instrument Tecan (Spark 10 M) was purchased from Switzerland Tecan Company.
(1) Experimental preparation: The test compound was diluted with dilution buffer into different concentration gradients (the highest final concentration in 20 μL final reaction system was 10 μM), His-CD80 protein was diluted to 800 nM (the final concentration in 20 μL final reaction system was 100 nM), and the PD-L1-Fc fusion protein was diluted to 16 nM (final concentration was 2 nM). The anti-His-XL665 antibody and anti-hFc-Eu^3+ antibody were respectively diluted 20 times and 100 times using the detection buffer according to the reagent requirements.
(2) 5 μL of test compound, 2.5 μL of Hid-CD80 protein and 2.5 μL of […] solution were mixed, and incubated at room temperature for 15 min. Then the system was added with 5 μL of anti-His-XL665 antibody and 5 μL of anti-hFc-Eu^3+ antibody, incubated for another 3 h, and then detected.
(3) When detecting the reaction, a control group was provided, including a 0% inhibition positive control without adding test compounds and a 100% inhibition negative control without adding CD-80 protein. All detections were performed with duplicates.
(4) The fluorescence signal of each well was measured using a fluorescence detector Tecan (Spark 10M) at an excitation wavelength of 320 nm, and emission wavelengths of 620 nm and 665 nm, respectively. The intensity of the mutual binding of CD80 and PD-L1 referred to the ratio of fluorescence signals Em665/Em620.
(5) The binding inhibition rate of the test compound was calculated as follows: Inhibition rate (%)=[1−(Fluorescence signal ratio of detection well-fluorescence signal ratio of 100% inhibition negative control)]/(fluorescence signal ratio of 0% inhibition positive control-fluorescence signal ratio of 100% inhibition negative control)×100%. After calculating the inhibition rate on CD80/PD-L1 binding of the test compounds with different concentration gradients, the 50% inhibitory concentration (IC50) was calculated.
For orientation: In TR-FRET formats the signal depends on donor and acceptor labels being close together.

T2 sequence (Q9NZQ7 19-239 limits assumed): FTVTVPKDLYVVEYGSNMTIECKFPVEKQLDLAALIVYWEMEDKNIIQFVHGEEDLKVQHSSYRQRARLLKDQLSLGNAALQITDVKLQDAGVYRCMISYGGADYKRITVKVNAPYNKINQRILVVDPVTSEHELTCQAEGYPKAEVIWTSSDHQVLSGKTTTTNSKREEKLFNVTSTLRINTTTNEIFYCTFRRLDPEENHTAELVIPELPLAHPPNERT
T1 sequence (Q9NZQ7 19-239 limits assumed): as above

For the compound `[2H]C([2H])([2H])OCC12CCC(CCN3CCc4c(nc(C(=O)Nc5cccc(-c6cccc(NC(=O)c7nc8c(n7C([2H])([2H])[2H])CCN(CCC79CCC(C(=O)O)(CC7)C9)C8)c6Cl)c5Cl)n4C([2H])([2H])[2H])C3)(CC1)C2` [Compound I-5, 4-(2-(2-((2,2′-dichloro-3′-(5-(2-(4-((methoxy-d3)methyl)bicyclo[2.2.1]heptane-1-yl)ethyl)-1-(methyl-d3)-4,5,6,7-tetrahydro-1H-imidazo[4,5-c]pyridine-2-carboxamido)-[1,1′-biphenyl]-3-yl)carbamoyl)-1-(methyl-d3)-1,4,6,7-tetrahydro-5H-imidazo[4,5-c]pyridin-5-yl)ethyl)bicyclo[2.2.1]heptane-1-carboxylic acid], the IC50 in test [1] stood at 1.02 nM; in test [2], 1.12 nM.

Turning to `[2H]C([2H])([2H])OCC12CCC(CCN3CCc4c(nc(C(=O)Nc5cccc(-c6cccc(NC(=O)c7nc8c(n7C)CCN(CCC79CCC(C(=O)O)(CC7)C9)C8)c6Cl)c5F)n4C)C3)(CC1)C2` (single isomer, unassigned) [Compound I-2, 4-(2-(2-((2-chloro-2′-fluoro-3′-(5-(2-(4-((methoxy-d3)methyl)bicyclo[2.2.1]heptane-1-y 1)ethyl)-1-methyl-4,5,6,7-tetrahydro-1H-imidazo[4,5-c]pyridine-2-carboxamido)-[1,1′-biphenyl]-3-yl)carbamoyl)-1-methyl-1,4,6,7-tetrahydro-5H-imidazo[4,5-c]pyridin-5-yl)ethyl)bicyclo[2.2.1]heptane-1-carboxylic acid], the figures for the IC50 in test [1] and in test [2] were 1.52 nM and 1.09 nM, respectively.

In the case of `[2H]c1c([2H])c(NC(=O)c2nc3c(n2C)CCN(CCC24CCC(COC([2H])([2H])[2H])(CC2)C4)C3)c(F)c(-c2c([2H])c([2H])c([2H])c(NC(=O)c3nc4c(n3C)CCN(CCC35CCC(C(=O)O)(CC3)C5)C4)c2Cl)c1[2H]` (single isomer, unassigned) [Compound I-14, 4-(2-(2-((2-chloro-2′-fluoro-3′-(5-(2-(4-((methoxy-d3)methyl)bicyclo[2.2.1]heptane-1-y 1)ethyl)-1-methyl-4,5,6,7-tetrahydro-1H-imidazo[4,5-c]pyridine-2-carboxamido)-[1,1′-biphenyl]-3-yl-4,4′,5,5′,6,6′-d6)carbamoyl)-1-methyl-1,4,6,7-tetrahydro-5H-imidazo[4,5-c]pyridin-5-yl)ethyl)bicyclo[2.2.1]heptane-1-carboxylic acid], the IC50 was determined as 0.51 nM in test [1] and 0.37 nM in test [2].

Take `[2H]C([2H])([2H])OCC12CCC(CCN3CCc4c(nc(C(=O)Nc5cccc(-c6cccc(NC(=O)c7nc8c(n7C([2H])([2H])[2H])CCN(CCC79CCC(C(=O)O)(CC7)C9)C8)c6Cl)c5F)n4C([2H])([2H])[2H])C3)(CC1)C2` (single isomer, unassigned) [Compound I-7, 4-(2-(2-((2-chloro-2′-fluoro-3′-(5-(2-(4-((methoxy-d3)methyl)bicyclo[2.2.1]heptane-1-yl)ethyl)-1-(methyl-d3)-4,5,6,7-tetrahydro-1H-imidazo[4,5-c]pyridine-2-carboxamido)-[1,1′-biphenyl]-3-yl)carbamoyl)-1-(methyl-d3)-1,4,6,7-tetrahydro-5H-imidazo[4,5-c]pyridin-5-yl)ethyl)bicyclo[2.2.1]heptane-1-carboxylic acid]: the IC50 in test [1] turned out to be 1.38 nM; in test [2], 1.94 nM.

Consider `[2H]C([2H])([2H])OCC12CCC(CCN3CCc4c(nc(C(=O)Nc5cccc(-c6cccc(NC(=O)c7nc8c(n7C)CCN(CCC79CCC(C(=O)O)(CC7)C9)C8)c6Cl)c5C)n4C)C3)(CC1)C2` [Compound I-4, 4-(2-(2-((2-chloro-3′-(5-(2-(4-((methoxy-d3)methyl)bicyclo[2.2.1]heptane-1-yl)ethyl)-1-methyl-4,5,6,7-tetrahydro-1H-imidazo[4,5-c]pyridine-2-carboxamido)-2′-methyl-[1,1′-biphenyl]-3-yl)carbamoyl)-1-methyl-1,4,6,7-tetrahydro-5H-imidazo[4,5-c]pyridin-5-yl)ethyl)bicyclo[2.2.1]heptane-1-carboxylic acid], for which the IC50 in test [1] stood at 2.8 nM; in test [2], 1.75 nM.

On to `[2H]C([2H])([2H])OCC12CCC(CCN3CCc4c(nc(C(=O)Nc5cccc(-c6cccc(NC(=O)c7nc8c(n7C)CCN(CCC79CCC(C(=O)O)(CC7)C9)C8)c6Cl)c5Cl)n4C)C3)(CC1)C2` [Compound I-1, 4-(2-(2-((2,2′-dichloro-3′-(5-(2-(4-((methoxy-d3)methyl)bicyclo[2.2.1]heptane-1-yl)ethyl)-1-methyl-4,5,6,7-tetrahydro-1H-imidazo[4,5-c]pyridine-2-carboxamido)-[1,1′-biphenyl]-3-yl)carbamoyl)-1-methyl-1,4,6,7-tetrahydro-5H-imidazo[4,5-c]pyridin-5-yl)ethyl)bicyclo[2.2.1]heptane-1-carboxylic acid], for which the IC50 came out at 0.72 nM in test [1] and 0.58 nM in test [2].

For the origin of these results see US20260234164A1, “BIPHENYL COMPOUND AS IMMUNOMODULATOR, PREPARATION METHOD THEREFOR AND USE THEREOF” (SHENZHEN CHIPSCREEN BIOSCIENCES CO., LTD., priority 2021, published 2026).
